# Measured values as given in patent publication US20180346446A1, “IRE1 SMALL MOLECULE INHIBITORS” (QUENTIS THERAPEUTICS, INC., priority 2017, published 2018).
# Structures can show the parent of a compound that is named as a salt.
# Columns and labels:
# IRE1a [1] = molecular target: T1, IRE1a (Homo sapiens, UniProt O75460); experiment: IRE1a Endoribonuclease Nanoluciferase Assay (XBP1 luciferase reporter in 293T cells); type: cell-based; details: 293T cells transfected with XBP1 luciferase reporter, ER stressors +/- inhibitors
# T1 sequence (O75460 19-977): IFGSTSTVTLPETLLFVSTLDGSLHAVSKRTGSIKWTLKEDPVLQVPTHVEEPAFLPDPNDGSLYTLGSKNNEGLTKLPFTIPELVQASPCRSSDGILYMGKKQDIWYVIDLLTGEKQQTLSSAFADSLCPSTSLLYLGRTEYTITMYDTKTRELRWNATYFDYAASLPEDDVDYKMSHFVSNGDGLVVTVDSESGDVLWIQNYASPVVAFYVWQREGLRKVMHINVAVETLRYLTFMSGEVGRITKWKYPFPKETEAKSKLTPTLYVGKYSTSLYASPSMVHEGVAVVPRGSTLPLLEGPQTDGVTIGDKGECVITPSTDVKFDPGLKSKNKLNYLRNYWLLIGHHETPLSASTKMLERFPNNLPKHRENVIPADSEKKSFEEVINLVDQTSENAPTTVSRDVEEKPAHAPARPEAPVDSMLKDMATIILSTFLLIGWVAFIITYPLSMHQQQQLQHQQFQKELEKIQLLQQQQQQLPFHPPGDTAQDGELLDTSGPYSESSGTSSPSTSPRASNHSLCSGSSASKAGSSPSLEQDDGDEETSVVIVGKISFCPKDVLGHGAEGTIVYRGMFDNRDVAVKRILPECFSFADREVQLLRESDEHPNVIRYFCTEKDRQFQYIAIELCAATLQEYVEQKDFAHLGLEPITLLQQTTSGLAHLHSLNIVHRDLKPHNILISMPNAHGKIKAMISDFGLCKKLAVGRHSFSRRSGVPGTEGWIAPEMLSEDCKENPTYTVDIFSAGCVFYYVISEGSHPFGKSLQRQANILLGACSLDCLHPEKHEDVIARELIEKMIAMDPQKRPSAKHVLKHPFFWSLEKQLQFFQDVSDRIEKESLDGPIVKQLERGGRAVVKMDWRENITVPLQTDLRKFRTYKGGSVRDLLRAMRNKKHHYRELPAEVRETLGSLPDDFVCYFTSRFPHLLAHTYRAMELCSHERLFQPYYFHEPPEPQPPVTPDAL
# How it was run: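 293T cells were transfected with a PGK-Luc2-P2A-XBP1u-nanoluciferase-PEST reporter and plated in 96-well format. A day later they were treated with ER stressors with or without inhibitors. Lysates were read for luminescence with OneGlo, then again after Stop and Glo.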
# 293T cells = experiment: Growth assay (cytotoxicity); type: cell-based; details: 2 day incubation
# Protocol: A growth assay was performed to evaluate the compounds disclosed herein for cytotoxicity. Briefly, 5,000,000 293T cells were resuspended in 18 mL of cDMEM for a final concentration of 277,777 cells/mL. […] In a separate 96 well dilution plate, 199 uL cDMEM and 1 uL of DMSO or any one of the compounds disclosed herein (shown as Test Compound 1, 2, 3, 4, 5, or 6 below) were added to wells A4, A8, C4, C8, E4, E8, G4, and G8. 133.3 uL cDMEM was added to wells 1, 2, 3, 5, 6, and 7 in rows A, C, E and G of the dilution plate. Compounds were serially diluted leftwards in threefold dilutions (66.7 uL into 133.3 uL cDMEM). 20 uL of each dilution was transferred in duplicate (duplicates in vertical paired wells) to the cells plated in the 96-well plate shown in Table 5, to the total concentrations shown below. 200 uL cDMEM was added to media wells (wells G5-H8). The plate was then placed in a humidified chamber for a 2 day incubation, and then photographed (media was more yellow in wells with potent cell growth). Absorbance was then measured at about […] (lower for more acidic media) and about […] (higher for more acidic media).
# hERG channel = molecular target: T2, hERG channel (Homo sapiens, UniProt Q12809); experiment: hERG potassium ion channel automated planar clamp (QPatch); type: cell-based; details: hERG channel expressed in a stable CHO cell line, read-out: hERG channel blockade Mean IC50
# T2 construct: expressed in transfected cells
# T2 sequence (Q12809 whole entry): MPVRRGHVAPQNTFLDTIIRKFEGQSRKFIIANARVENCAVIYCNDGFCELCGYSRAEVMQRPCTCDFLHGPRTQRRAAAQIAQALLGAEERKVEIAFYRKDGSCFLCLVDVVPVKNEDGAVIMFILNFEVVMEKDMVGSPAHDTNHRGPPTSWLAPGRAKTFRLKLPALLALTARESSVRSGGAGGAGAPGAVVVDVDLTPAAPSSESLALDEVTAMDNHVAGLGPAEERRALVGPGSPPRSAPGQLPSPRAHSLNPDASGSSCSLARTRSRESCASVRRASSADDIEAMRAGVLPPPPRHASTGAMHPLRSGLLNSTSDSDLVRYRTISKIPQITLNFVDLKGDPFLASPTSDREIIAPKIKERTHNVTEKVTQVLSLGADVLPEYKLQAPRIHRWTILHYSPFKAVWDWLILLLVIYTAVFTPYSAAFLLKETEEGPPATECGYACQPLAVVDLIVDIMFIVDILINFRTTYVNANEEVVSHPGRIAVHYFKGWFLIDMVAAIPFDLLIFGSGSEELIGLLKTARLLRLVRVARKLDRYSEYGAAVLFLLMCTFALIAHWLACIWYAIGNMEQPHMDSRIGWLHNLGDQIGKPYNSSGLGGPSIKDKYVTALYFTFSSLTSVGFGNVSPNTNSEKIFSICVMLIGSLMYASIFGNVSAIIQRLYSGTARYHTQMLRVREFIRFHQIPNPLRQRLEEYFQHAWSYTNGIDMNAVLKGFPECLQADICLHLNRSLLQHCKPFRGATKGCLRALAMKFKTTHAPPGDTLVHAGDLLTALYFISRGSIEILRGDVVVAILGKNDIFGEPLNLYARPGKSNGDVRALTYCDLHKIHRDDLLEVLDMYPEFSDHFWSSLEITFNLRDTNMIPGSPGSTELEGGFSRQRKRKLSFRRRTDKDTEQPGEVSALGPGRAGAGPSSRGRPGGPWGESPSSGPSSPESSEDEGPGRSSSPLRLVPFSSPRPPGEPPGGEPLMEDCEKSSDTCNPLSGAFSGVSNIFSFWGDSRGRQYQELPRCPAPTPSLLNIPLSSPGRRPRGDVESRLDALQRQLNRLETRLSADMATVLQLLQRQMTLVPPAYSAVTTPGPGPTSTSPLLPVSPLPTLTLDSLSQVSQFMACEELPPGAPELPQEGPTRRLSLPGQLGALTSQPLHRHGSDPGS
# Protocol: Blockade of the cardiac ion channel coded by the hERG gene can lead to cardiac arrhythmia. […] To determine the viability of the compounds disclosed herein as pharmacological agents that would not affect the hERG channel blockade, a standard automated planar clamp method was employed to determine the IC50 for various test compounds on their inhibition of the channel. An electrophysiological assay was prepared to measure the electric current passing through the hERG channel expressed in a stable CHO cell line by applying the planar clamp method. This assay was performed using the automated QPatch platform (Sophion, Denmark) which allows fast and accurate electrophysiological characterization of the hERG ion channel and the determination of IC50 values for the test compounds, as shown in Table 9.
# IRE1a [2] = molecular target: T1, IRE1a; experiment: In vitro FRET assay (XBP1 RNA probe cleavage by IRE1a); type: biochemical; parameters: purchased SignalChem; details: 2 nM IRE1a protein
SMILES,EC50 (IRE1a [1]) [nM],% Growth at 0.185 uM (293T cells),% Growth at 0.5556 uM (293T cells),% Growth at 1.667 uM (293T cells),% Growth at 5 uM (293T cells),IC50 (hERG channel) [nM],IC50 (IRE1a [2]) [nM]
CCc1cc(-c2ccc(NS(=O)(=O)c3ccccc3Cl)nc2C)cc2cnc(N[C@H]3CC[C@H](N)CC3)nc12.O=CO [16; Formic Acid],≤ 5,D (D: >75% to ≤100%),D (D: >75% to ≤100%),D (D: >75% to ≤100%),B (B: >25% to ≤50%),10000 to 50000,≤ 5
CCc1cc(-c2cnc(NS(=O)(=O)c3ccccc3Cl)cn2)cc2cnc(N[C@H]3CC[C@H](N)CC3)nc12.O=CO [25; Formic Acid],≤ 5,D (D: >75% to ≤100%),D (D: >75% to ≤100%),D (D: >75% to ≤100%),D (D: >75% to ≤100%),–,≤ 5
CCc1cc(-c2nnc(NS(=O)(=O)c3ccccc3Cl)cc2OC)cc2cnc(N[C@H]3CC[C@H](N)CC3)nc12.O=CO [65; Formic Acid],5 to 50,D (D: >75% to ≤100%),D (D: >75% to ≤100%),D (D: >75% to ≤100%),C (C: >50% to ≤75%),–,≤ 5
CCc1cc(-c2cc(NS(=O)(=O)c3ccccc3Cl)n[nH]2)cc2cnc(N[C@H]3CC[C@H](N)CC3)nc12.O=CO [29; Formic Acid],> 100,D (D: >75% to ≤100%),D (D: >75% to ≤100%),D (D: >75% to ≤100%),D (D: >75% to ≤100%),–,≤ 5
CCc1cc(-c2cnc(NS(=O)(=O)c3ccccc3Cl)nc2C)cc2cnc(N[C@H]3CC[C@H](N)CC3)nc12.O=CO [23; Formic Acid],≤ 5,D (D: >75% to ≤100%),C (C: >50% to ≤75%),C (C: >50% to ≤75%),D (D: >75% to ≤100%),–,≤ 5
CCc1cc(-c2ccc(NS(=O)(=O)c3ccccc3Cl)cc2F)cc2cnc(N[C@H]3CC[C@H](N)CC3)nc12.O=CO [35; Formic Acid],≤ 5,D (D: >75% to ≤100%),D (D: >75% to ≤100%),C (C: >50% to ≤75%),B (B: >25% to ≤50%),–,≤ 5
CCc1cc(-c2ncc(NS(=O)(=O)c3ccccc3Cl)cn2)cc2cnc(N[C@H]3CC[C@H](N)CC3)nc12.O=CO [33; Formic Acid],≤ 5,D (D: >75% to ≤100%),D (D: >75% to ≤100%),D (D: >75% to ≤100%),C (C: >50% to ≤75%),–,≤ 5
CCc1cc(-c2ncc(NS(=O)(=O)c3ccccc3Cl)cc2F)cc2cnc(N[C@H]3CC[C@H](N)CC3)nc12.O=CO [52; Formic Acid],≤ 5,D (D: >75% to ≤100%),D (D: >75% to ≤100%),D (D: >75% to ≤100%),C (C: >50% to ≤75%),–,≤ 5
CCc1cc(-c2ccc(NS(=O)(=O)c3ccccc3Cl)nc2)cc2cnc(N[C@H]3CC[C@H](N)CC3)nc12.O=CO [27; Formic Acid],≤ 5,D (D: >75% to ≤100%),D (D: >75% to ≤100%),C (C: >50% to ≤75%),B (B: >25% to ≤50%),–,≤ 5
CCc1cc(NS(=O)(=O)c2ccccc2Cl)ccc1-c1cc(CC)c2nc(N[C@H]3CC[C@H](N)CC3)ncc2c1.O=CO [34; Formic Acid],5 to 50,D (D: >75% to ≤100%),D (D: >75% to ≤100%),D (D: >75% to ≤100%),A (A: ≤25%),–,≤ 5
CCc1cc(-c2ccc(NS(=O)(=O)c3ccccc3Cl)cc2OC)cc2cnc(N[C@H]3CC[C@H](N)CC3)nc12.O=CO [19; Formic Acid],≤ 5,D (D: >75% to ≤100%),D (D: >75% to ≤100%),C (C: >50% to ≤75%),A (A: ≤25%),–,≤ 5
CCc1cc(-c2ccc(NS(=O)(=O)c3ccccc3Cl)c(C)c2C)cc2cnc(N[C@H]3CC[C@H](N)CC3)nc12.O=CO [22; Formic Acid],> 100,D (D: >75% to ≤100%),D (D: >75% to ≤100%),D (D: >75% to ≤100%),A (A: ≤25%),–,5 to 50
CCc1cc(-c2ccc(NS(=O)(=O)c3ccccc3Cl)cc2)cc2cnc(N[C@H]3CC[C@H](N)CC3)nc12.O=CO [18; Formic Acid],≤ 5,D (D: >75% to ≤100%),D (D: >75% to ≤100%),C (C: >50% to ≤75%),A (A: ≤25%),–,≤ 5
CCc1cc(-c2ccc(NS(=O)(=O)c3ccccc3Cl)nc2OC)cc2cnc(N[C@H]3CC[C@H](N)CC3)nc12 [37; HCl ^],≤ 5,–,D (D: >75% to ≤100%),C (C: >50% to ≤75%),B (B: >25% to ≤50%),10000 to 50000,≤ 5
CCc1cc(-c2ccc(NS(=O)(=O)c3ccccc3Cl)c(F)c2)cc2cnc(N[C@H]3CC[C@H](N(C)C)CC3)nc12.O=CO [69; Formic Acid],≤ 5,–,D (D: >75% to ≤100%),C (C: >50% to ≤75%),C (C: >50% to ≤75%),10000 to 50000,≤ 5
CCc1cc(-c2nnc(NS(=O)(=O)c3ccccc3Cl)cc2C)cc2cnc(N[C@H]3CC[C@H](N)CC3)nc12.O=CO [67; Formic Acid],5 to 50,D (D: >75% to ≤100%),D (D: >75% to ≤100%),C (C: >50% to ≤75%),C (C: >50% to ≤75%),–,≤ 5
CCc1cc(-c2ccc(NS(=O)(=O)c3ccccc3Cl)cc2C)cc2cnc(N[C@H]3CC[C@H](N)CC3)nc12.O=CO [3; Formic Acid],5 to 50,D (D: >75% to ≤100%),D (D: >75% to ≤100%),C (C: >50% to ≤75%),A (A: ≤25%),10000 to 50000,≤ 5
CCc1cc(-c2cc(F)c(NS(=O)(=O)c3ccccc3Cl)cc2C)cc2cnc(N[C@H]3CC[C@H](N)CC3)nc12.O=CO [21; Formic Acid],5 to 50,D (D: >75% to ≤100%),D (D: >75% to ≤100%),D (D: >75% to ≤100%),B (B: >25% to ≤50%),–,≤ 5
CCc1cc(-c2ccc(NS(=O)(=O)c3ccccc3Cl)nn2)cc2cnc(N[C@H]3CC[C@H](N)CC3)nc12.O=CO [32; Formic Acid],≤ 5,D (D: >75% to ≤100%),D (D: >75% to ≤100%),C (C: >50% to ≤75%),B (B: >25% to ≤50%),–,≤ 5
CCc1cc(-c2ccc(NS(=O)(=O)c3ccccc3Cl)c(F)c2)cc2cnc(N[C@H]3CC[C@H](N)CC3)nc12.O=CO [24; Formic Acid],≤ 5,D (D: >75% to ≤100%),D (D: >75% to ≤100%),C (C: >50% to ≤75%),C (C: >50% to ≤75%),1000 to 10000,≤ 5
CCc1cc(-c2cnc(NS(=O)(=O)c3ccccc3Cl)nc2OC)cc2cnc(N[C@H]3CC[C@H](N)CC3)nc12.O=CO [46; Formic Acid],≤ 5,D (D: >75% to ≤100%),D (D: >75% to ≤100%),D (D: >75% to ≤100%),D (D: >75% to ≤100%),–,≤ 5
CCc1cc(-c2ncc(NS(=O)(=O)c3ccccc3Cl)cc2C)cc2cnc(N[C@H]3CC[C@H](N)CC3)nc12.O=CO [20; Formic Acid],50 to 100,D (D: >75% to ≤100%),D (D: >75% to ≤100%),D (D: >75% to ≤100%),C (C: >50% to ≤75%),–,≤ 5
